Data as given in patent publication US6737383B1, “Herbicidal oxadiazolidines” (priority 1999, dated 2004).

Legend:
[1] = test system: wheat; assay: Test B pre/postemergence wheat; type: in vivo, Triticum aestivum
Method in brief: (§1)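 Response is a visual 0-to-10 score relative to untreated plants, where 0 means no effect and 10 means complete control, taken twelve to sixteen days after application. Treatments went onto soil at planting and onto foliage of 1- to 4-leaf plants, using a surfactant-containing non-phytotoxic solvent.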

[2] = test system: giant foxtail; assay: Test B pre/postemergence giant foxtail; type: in vivo, Setaria faberii
Method in brief: as §1

[3] = test system: soybean; assay: Test B pre/postemergence soybean; type: in vivo, Glycine max
Method in brief: as §1

[4] = test system: sugar beet; assay: Test B pre/postemergence sugar beet; type: in vivo, Beta vulgaris
Method in brief: as §1

[5] = test system: pigweed; assay: Test B pre/postemergence pigweed; type: in vivo, Amaranthus retroflexus
Method in brief: as §1

[6] = test system: cocklebur; assay: Test B pre/postemergence cocklebur; type: in vivo, Xanthium strumarium
Method in brief: as §1

[7] = test system: morningglory; assay: Test B pre/postemergence morningglory; type: in vivo, Ipomoea hederacea
Method in brief: as §1

[8] = test system: purple nutsedge; assay: Test B pre/postemergence purple nutsedge; type: in vivo, Cyperus rotundus
Method in brief: as §1

[9] = test system: crabgrass; assay: Test B pre/postemergence crabgrass; type: in vivo, Digitaria sanguinalis
Method in brief: as §1

[10] = test system: rice; assay: Test B flood test rice; type: in vivo, Oryza sativa
Method in brief: (§2)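 Plants were grown to the 2-leaf stage before treatment with test chemical, then held in a greenhouse for twelve to sixteen days. Injury was visually rated against untreated controls on a 0–10 scale, where 0 is no effect and 10 is complete control.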

[11] = test system: bamyardgrass; assay: Test B flood test barnyardgrass; type: in vivo, Echinochloa crus-galli
Method in brief: as §2

[12] = test system: corn; assay: Test B pre/postemergence corn; type: in vivo, Zea mays
Method in brief: as §1

[13] = test system: duck salad; assay: Test B flood test duck salad; type: in vivo, Heteranthera limosa
Method in brief: as §2

[14] = test system: wild oat; assay: Test B pre/postemergence wild oat; type: in vivo, Avena fatua
Method in brief: as §1

[15] = test system: velvetleaf; assay: Test B pre/postemergence velvetleaf; type: in vivo, Abutilon theophrasti
Method in brief: as §1

[16] = test system: rape; assay: Test B pre/postemergence rape; type: in vivo, Brassica napus
Method in brief: as §1

[17] = Postemergence, Rate 125 g/ha, scale of 0 to 10 where 0 is no effect and 10 is complete control
[18] = Postemergence, Rate 1000 g/ha, scale 0 to 10 (0 no effect, 10 complete control)
[19] = Preemergence, Rate 62 g/ha, scale 0 to 10 (0 no effect, 10 complete control)
[20] = Preemergence, Rate 125 g/ha, 0 is no effect, 10 is complete control
[21] = Preemergence, Rate 250 g/ha, scale of 0 to 10 where 0 is no effect and 10 is complete control
[22] = Preemergence, Rate 500 g/ha, scale 0 (no effect) to 10 (complete control)
[23] = Rate 62 g/ha, Postemergence, scale of 0 to 10 where 0 is no effect and 10 is complete control
[24] = Rate 250 g/ha, Postemergence, scale 0 to 10, 0 is no effect, 10 is complete control
[25] = Rate 500 g/ha, Postemergence, scale 0 to 10, 0 no effect, 10 complete control
[26] = Rate 1000 g/ha, Preemergence, scale 0 to 10 (0 no effect, 10 complete control)
[27] = Postemergence, Rate 250 g/ha, scale 0 to 10, 0 no effect, 10 complete control
[28] = Preemergence, Rate 125 g/ha, scale 0 to 10 (0 no effect, 10 complete control)
[29] = Postemergence (flood test species), Rate 125 g/ha, scale of 0 to 10 where 0 is no effect and 10 is complete control
[30] = Rate 62 g/ha, Postemergence section, flood test species, scale of 0 to 10 where 0 is no effect and 10 is complete control
[31] = Rate 500 g/ha, listed under Postemergence (flood test species), scale 0 to 10, 0 no effect, 10 complete control
[32] = flood test, listed under Postemergence, Rate 250 g/ha, scale 0 to 10, 0 no effect, 10 complete control

CC(C)N(C(=O)n1oc(=O)n(C2CCCCC2C(F)(F)F)c1=O)c1ccc(F)cc1 (stereo not drawn) [Compound 99]
Wheat plant response rating [1, 17]: 0
Wheat plant response rating [1, 18]: 2
Wheat plant response rating [1, 19]: 0
Wheat plant response rating (0 to 10 scale) [1, 20]: 0
Plant response rating, Wheat [1, 21]: 2
Wheat plant response rating [1, 22]: 2
Wheat plant response rating [1, 23]: 0
Plant response rating, Wheat [1, 24]: 0
Wheat plant response rating [1, 25]: 0
Plant response rating, Wheat [1, 26]: 2
Giant foxtail plant response rating [2, 17]: 0
Giant foxtail plant response rating [2, 27]: 2
Giant foxtail plant response rating [2, 18]: 2
Plant response rating, Giant foxtail [2, 28]: 10
Plant response rating, Giant foxtail [2, 21]: 10
Giant foxtail plant response rating [2, 22]: 10
Giant foxtail plant response rating [2, 23]: 0
Giant foxtail plant response rating [2, 25]: 7
Plant response rating, Giant foxtail [2, 26]: 10
Soybean plant response rating [3, 17]: 2
Soybean plant response rating [3, 18]: 3
Soybean plant response rating [3, 19]: 0
Plant response rating, Soybean [3, 28]: 0
Plant response rating, Soybean [3, 21]: 0
Soybean plant response rating [3, 22]: 0
Soybean plant response rating [3, 23]: 2
Plant response rating, Soybean [3, 24]: 3
Soybean plant response rating [3, 25]: 4
Plant response rating, Soybean [3, 26]: 2
Sugarbeets plant response rating [4, 17]: 4
Sugarbeets plant response rating [4, 18]: 5
Sugarbeets plant response rating [4, 19]: 0
Sugarbeets plant response rating (0 to 10 scale) [4, 20]: 2
Plant response rating, Sugarbeets [4, 21]: 2
Sugarbeets plant response rating [4, 22]: 4
Sugarbeets plant response rating [4, 23]: 2
Plant response rating, Sugarbeets [4, 24]: 4
Sugarbeets plant response rating [4, 25]: 5
Plant response rating, Sugarbeets [4, 26]: 6
Redroot pigweed plant response rating [5, 17]: 4
Redroot pigweed plant response rating [5, 18]: 7
Redroot pigweed plant response rating [5, 19]: 0
Plant response rating, Redroot pigweed [5, 28]: 0
Plant response rating, Redroot pigweed [5, 21]: 4
Redroot pigweed plant response rating [5, 22]: 10
Redroot pigweed plant response rating [5, 23]: 3
Plant response rating, Redroot pigweed [5, 24]: 5
Redroot pigweed plant response rating [5, 25]: 7
Plant response rating, Redroot pigweed [5, 26]: 10
Cocklebur plant response rating [6, 17]: 2
Cocklebur plant response rating [6, 27]: 2
Cocklebur plant response rating [6, 18]: 4
Cocklebur plant response rating [6, 19]: 0
Plant response rating, Cocklebur [6, 28]: 0
Plant response rating, Cocklebur [6, 21]: 0
Cocklebur plant response rating [6, 22]: 0
Cocklebur plant response rating [6, 23]: 0
Cocklebur plant response rating [6, 25]: 3
Plant response rating, Cocklebur [6, 26]: 7
Morningglory plant response rating [7, 17]: 3
Morningglory plant response rating [7, 27]: 3
Morningglory plant response rating [7, 18]: 9
Morningglory plant response rating [7, 19]: 0
Plant response rating, Morningglory [7, 28]: 0
Plant response rating, Morningglory [7, 21]: 0
Morningglory plant response rating [7, 22]: 0
Morningglory plant response rating [7, 23]: 1
Morningglory plant response rating [7, 25]: 5
Plant response rating, Morningglory [7, 26]: 3
Nutsedge plant response rating [8, 17]: 0
Nutsedge plant response rating [8, 27]: 0
Nutsedge plant response rating [8, 18]: 0
Nutsedge plant response rating [8, 19]: 0
Plant response rating, Nutsedge [8, 28]: 0
Plant response rating, Nutsedge [8, 21]: 0
Nutsedge plant response rating [8, 22]: 6
Nutsedge plant response rating [8, 23]: 0
Nutsedge plant response rating [8, 25]: 0
Plant response rating, Nutsedge [8, 26]: 10
Crabgrass plant response rating [9, 17]: 2
Crabgrass plant response rating [9, 27]: 4
Crabgrass plant response rating [9, 18]: 8
Crabgrass plant response rating [9, 19]: 5
Plant response rating, Crabgrass [9, 28]: 8
Plant response rating, Crabgrass [9, 21]: 10
Crabgrass plant response rating [9, 22]: 10
Crabgrass plant response rating [9, 23]: 0
Crabgrass plant response rating [9, 25]: 8
Plant response rating, Crabgrass [9, 26]: 10
Rice plant response rating [10, 29]: 0
Rice plant response rating [10, 18]: 0
Rice plant response rating [10, 30]: 0
Plant response rating, Rice ([10]; Rate 250 g/ha, Postemergence (flood test), scale 0 to 10, 0 is no effect, 10 is complete control): 0
Rice plant response rating [10, 31]: 0
Barnyardgrass plant response rating ([11]; Postemergence, Rate 62 g/ha, scale 0 to 10, 0 is no effect, 10 is complete control): 0
Barnyardgrass plant response rating [11, 18]: 8
Barnyardgrass plant response rating ([11]; Rate 125 g/ha, Postemergence section (flood test species), scale 0 to 10, 0 no effect, 10 complete control): 0
Barnyardgrass plant response rating [11, 31]: 5
Barnyardgrass plant response rating [11, 32]: 0
Corn plant response rating [12, 17]: 0
Corn plant response rating [12, 27]: 0
Corn plant response rating [12, 18]: 0
Corn plant response rating [12, 19]: 0
Plant response rating, Corn [12, 28]: 0
Plant response rating, Corn [12, 21]: 0
Corn plant response rating [12, 22]: 0
Corn plant response rating [12, 23]: 0
Corn plant response rating [12, 25]: 0
Plant response rating, Corn [12, 26]: 2
Ducksalad plant response rating [13, 29]: 0
Ducksalad plant response rating [13, 18]: 3
Ducksalad plant response rating [13, 30]: 0
Ducksalad plant response rating [13, 31]: 2
Ducksalad plant response rating [13, 32]: 2
Wild oats plant response rating [14, 17]: 0
Wild oats plant response rating [14, 18]: 3
Wild oats plant response rating [14, 19]: 0
Wild oats plant response rating (0 to 10 scale) [14, 20]: 3
Plant response rating, Wild oats [14, 21]: 3
Wild oats plant response rating [14, 22]: 5
Wild oats plant response rating [14, 23]: 0
Plant response rating, Wild oats [14, 24]: 0
Wild oats plant response rating [14, 25]: 0
Plant response rating, Wild oats [14, 26]: 7
Velvetleaf plant response rating [15, 17]: 3
Velvetleaf plant response rating [15, 18]: 7
Velvetleaf plant response rating [15, 19]: 0
Velvetleaf plant response rating (0 to 10 scale) [15, 20]: 0
Plant response rating, Velvetleaf [15, 21]: 0
Velvetleaf plant response rating [15, 22]: 3
Velvetleaf plant response rating [15, 23]: 0
Plant response rating, Velvetleaf [15, 24]: 3
Velvetleaf plant response rating [15, 25]: 5
Plant response rating, Velvetleaf [15, 26]: 0
Rape plant response rating [16, 17]: 2
Rape plant response rating [16, 27]: 4
Rape plant response rating [16, 18]: 7
Rape plant response rating [16, 19]: 0
Plant response rating, Rape [16, 28]: 0
Plant response rating, Rape [16, 21]: 0
Rape plant response rating [16, 22]: 3
Rape plant response rating [16, 23]: 2
Rape plant response rating [16, 25]: 6
Plant response rating, Rape [16, 26]: 6
